Measurements published in PMC467095 (Journal of Enzyme Inhibition and Medicinal Chemistry, 2024).
pIC50: −log10 of the molar value.

Experiments:
α-glucosidase = assay: α-Glucosidase inhibition assay; assay type: biochemical; conditions: for pIC50: read-out: α-Glucosidase IC50, Table 3, DF = 100
[1] = tested on: STZ-induced diabetes in mice; assay: Plasma insulin; assay type: in vivo; conditions: two weeks of treatment, mean of 6 mice ± SEM
[2] = tested on: STZ-induced diabetes in mice; assay: Liver function markers; assay type: in vivo; conditions: plasma, two weeks of treatment, mean of 6 mice ± SEM
[3] = tested on: STZ-induced diabetes in mice; assay: Kidney function parameters; assay type: in vivo; conditions: two weeks of treatment, mean of 6 mice ± SEM; for Urea: plasma
[4] = tested on: STZ-induced diabetes in mice; assay: Oxidative stress markers; assay type: in vivo; conditions: plasma, two weeks of treatment, mean of 6 mice ± SEM
[5] = tested on: STZ-induced diabetes in mice; assay: Blood glucose in STZ-induced diabetes in mice; assay type: in vivo; conditions: p < 0.05

Structure (SMILES): O=C1CSC(N=C2c3ccccc3-c3nc4cc(F)ccc4nc32)=N1 [Compound 4]
- pIC50 (α-glucosidase): 4.99
- Insulin [1]: 11.44 ± 0.2^a^,^b ng/mL

Structure (SMILES): CCOC(=O)c1sc(N=C2c3ccccc3-c3nc4cc(F)ccc4nc32)nc1C [Compound 6]
- pIC50 (α-glucosidase): 5.52
- Insulin [1]: 12.28 ± 0.3^a^,^b ng/mL

Structure (SMILES): CC(=O)c1sc(NN=C2c3ccccc3-c3nc4cc(F)ccc4nc32)nc1C [Compound 8, 1–(2-(2–(7-fluoro-11H-indeno[1,2-b]quinoxalin-11-ylidene)-hydrazineyl)-4-methyl-thiazol-5-yl)-ethan-1-one]
- pIC50 (α-glucosidase): 6.01
- Insulin [1]: 10.5 ± 0.3^a^,^b ng/mL

Structure (SMILES): CCC1SC(NN=C2c3ccccc3-c3nc4cc(F)ccc4nc32)=NC1=O (centres unmarked) [Compound 16]
- pIC50 (α-glucosidase): 5.15
- α-glucosidase inhibition IC50 (α-glucosidase; ± SD): good activity
- Insulin [1]: 9.34 ± 0.3^a^,^b ng/mL

Structure (SMILES): Cc1ccc(S(=O)(=O)NC(=O)NN2CC3CCCC3C2)cc1 (centres unmarked) [Gliclazide]
- ALT [2]: 53.7 ± 0.7^a^,^b
- AST [2]: 39.8 ± 0.3^a^,^b
- ALT ([2]; listed as gliclazide): significant reduction
- AST ([2]; listed as gliclazide): significant reduction
- Creat ([3]; plasma creatinine): 3.3 ± 0.1^a^,^b
- Urea [3]: 57.5 ± 0.3^a^,^b
- Urea ([3]; listed as gliclazide): significant lowering
- GSH [4]: 3.15 ± 0.05^a^,^b
- MDA [4]: 22 ± 0.2^a^,^b
- GSH ([4]; listed as gliclazide): significant elevation
- MDA ([4]; listed as gliclazide): significant reduction
- Insulin [1]: 14.52 ± 0.4^a^,^b ng/mL
- Insulin ([1]; listed as gliclazide): rose
- Blood sugar levels compared to the STZ-only treatment group [5]: declined significantly
